{"source": "patent US20250276972A1", "about": "“COMPOUNDS AS CASEIN KINASE INHIBITORS” (GRITSCIENCE BIOPHARMACEUTICALS CO.,LTD., priority 2020, published 2025)", "data": [{"target": "T1, CK1δ (Homo sapiens, UniProt P48730)", "T1 construct": "endogenous in cells; host or cells: Bmal1-dLuc or Per2-dLuc U2OS cells", "T1 sequence (P48730 whole entry)": "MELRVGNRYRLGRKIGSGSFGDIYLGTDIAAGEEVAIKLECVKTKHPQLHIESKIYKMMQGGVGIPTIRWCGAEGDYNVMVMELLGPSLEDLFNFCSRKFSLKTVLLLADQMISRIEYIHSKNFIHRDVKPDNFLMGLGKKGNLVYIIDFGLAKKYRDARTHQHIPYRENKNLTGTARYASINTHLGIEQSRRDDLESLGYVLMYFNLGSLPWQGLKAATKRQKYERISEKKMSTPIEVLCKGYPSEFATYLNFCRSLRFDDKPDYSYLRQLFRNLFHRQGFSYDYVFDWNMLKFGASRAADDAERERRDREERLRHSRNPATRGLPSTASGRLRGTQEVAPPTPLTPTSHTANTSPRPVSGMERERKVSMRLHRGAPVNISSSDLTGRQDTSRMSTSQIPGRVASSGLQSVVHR", "assay": "CK1δ inhibition (EC50); Bmal1-dLuc or Per2-dLuc U2OS luminescence rhythm period assay", "assay_type": "cell-based", "details": "Table 3", "protocol": "Bmall-dLuc or Per2-dLuc U2OS cells were suspended in the culture medium (DMEM supplemented with 10% fetal bovine serum, 0.29 mg/mL L-glutamine, 100 units/mL penicillin, and […] streptomycin) and plated onto 96-well white solid-bottom plates at 200 μL (10,000 cells) per well. After 2 days, 100 μL of the explant medium (DMEM supplemented with 2% B27, 10 mM HEPES, 0.38 mg/mL sodium bicarbonate, 0.29 mg/mL L-glutamine, 100 units/mL penicillin, […], 0.1 mg/mL gentamicin, and 1 mM luciferin, pH 7.2) was dispensed to each well, followed by the application of 1 μL of a compound of the present application (dissolved in DMSO; final concentration was 0.7% in DMSO). The plate was covered with an optically clear film and set to microplate reader (Infinite M200, Tecan).", "units": {"EC50": "nM"}, "values": [{"smiles": "Cc1cc(-c2c(-c3ccc(F)cc3)nn3c2CN(C2COC2)CC3)ccn1", "note": "[Compound I-12, 2-(4-fluorophenyl)-3-(2-methylpyridin-4-yl)-5-(oxetan-3-yl)-4,5,6,7-tetrahydropyrazolo[1,5-a]pyrazine]", "EC50": 20000}, {"smiles": "CS(=O)(=O)N1CCn2nc(-c3ccc(F)cc3)c(-c3ccnc(N)c3)c2C1", "note": "[Compound I-25, 4-(2-(4-fluorophenyl)-5-(methylsulfonyl)-4,5,6,7-tetrahydropyrazolo[1,5-a]pyrazin-3-yl)pyridin-2-amine]", "EC50": 670}, {"smiles": "CCN1CCn2nc(-c3ccc(F)cc3)c(-c3ccnc(NC(C)=O)c3)c2C1", "note": "[Compound I-26, N-(4-(5-ethyl-2-(4-fluorophenyl)-4,5,6,7-tetrahydropyrazolo[1,5-a]pyrazin-3-yl)pyridin-2-yl)acetamide]", "EC50": 400}, {"smiles": "CC(=O)Nc1cc(-c2c(-c3ccc(F)cc3)nn3c2CN(C(C)C)CC3)ccn1", "note": "[Compound I-27, N-(4-(2-(4-fluorophenyl)-5-isopropyl-4,5,6,7-tetrahydropyrazolo[1,5-a]pyrazin-3-yl)pyridin-2-yl)acetamide]", "EC50": 500}, {"smiles": "CC(=O)Nc1cc(-c2c(-c3ccc(F)cc3)nn3c2CN(C2CC2)CC3)ccn1", "note": "[Compound I-28]", "EC50": 600}, {"smiles": "CC(=O)Nc1cc(-c2c(-c3ccc(F)cc3)nn3c2CN(CC(F)(F)F)CC3)ccn1", "note": "[Compound I-29, N-(4-(2-(4-fluorophenyl)-5-(2,2,2-trifluoroethyl)-4,5,6,7-tetrahydropyrazolo[1,5-a]pyrazin-3-yl)pyridin-2-yl)acetamide]", "EC50": 600}, {"smiles": "CC(=O)Nc1cc(-c2c(-c3ccc(F)cc3)nn3c2CN(C(=O)C(F)(F)F)CC3)ccn1", "note": "[Compound I-30, N-(4-(2-(4-fluorophenyl)-5-(2,2,2-trifluoroacetyl)-4,5,6,7-tetrahydropyrazolo[1,5-a]pyrazin-3-yl)pyridin-2-yl)acetamide]", "EC50": 500}, {"smiles": "CC(=O)Nc1cc(-c2c(-c3ccc(F)cc3)nn3c2CN(CCO)CC3)ccn1", "note": "[Compound I-31, N-(4-(2-(4-fluorophenyl)-5-(2-hydroxyethyl)-4,5,6,7-tetrahydropyrazolo[1,5-a]pyrazin-3-yl)pyridin-2-yl)acetamide]", "EC50": 300}, {"smiles": "CC(C)(C)C(=O)Nc1cc(-c2c(-c3ccc(F)cc3)nn3c2CN(S(C)(=O)=O)CC3)ccn1", "note": "[Compound I-32, N-(4-(2-(4-fluorophenyl)-5-(methylsulfonyl)-4,5,6,7-tetrahydropyrazolo[1,5-a]pyrazin-3-yl)pyridin-2-yl)pivalamide]", "EC50": 800}, {"smiles": "CNCCN1CCn2nc(-c3ccc(F)cc3)c(-c3ccnc(NC(C)=O)c3)c2C1", "note": "[Compound I-41, N-(4-(2-(4-fluorophenyl)-5-(2-(methylamino)ethyl)-4,5,6,7-tetrahydropyrazolo[1,5-a]pyrazin-3-yl)pyridin-2-yl)acetamide]", "EC50": 600}, {"smiles": "CC(=O)Nc1cc(-c2c(-c3ccc(F)cc3)nn3c2CN(C2COC2)CC3)ccn1", "note": "[Compound I-46, N-(4-(2-(4-fluorophenyl)-5-(oxctan-3-yl)-4,5,6,7-tetrahydropyrazolo[1,5-a]pyrazin-3-yl)pyridin-2-yl)acetamide]", "EC50": 1200}, {"smiles": "CC(=O)Nc1cc(-c2c(-c3ccc(F)cc3)nn3c2CN(C2CC(F)C2)CC3)ccn1", "note": "(stereo not drawn) [Compound I-49, N-(4-(5-(3-fluorocyclobutyl)-2-(4-fluorophenyl)-4,5,6,7-tetrahydropyrazolo[1,5-a]pyrazin-3-yl)pyridin-2-yl)acetamide]", "EC50": 1300}, {"smiles": "CCCC(=O)Nc1cc(-c2c(-c3ccc(F)cc3)nn3c2CN(C(=O)CCC)CC3)ccn1", "note": "[Compound I-56, N-(4-(5-butyryl-2-(4-fluorophenyl)-4,5,6,7-tetrahydropyrazolo[1,5-a]pyrazin-3-yl)pyridin-2-yl)butyramide]", "EC50": 600}, {"smiles": "CC(=O)Nc1cc(-c2c(-c3ccc(F)cc3)nn3c2CN(C(C)=S)CC3)ccn1", "note": "[Compound I-57]", "EC50": 500}, {"smiles": "CC(=O)Nc1cc(-c2c(-c3ccc(F)cc3)nn3c2CN(C)CC3)ccn1", "note": "[Compound I-71, N-(4-(2-(4-fluorophenyl)-5-methyl-4,5,6,7-tetrahydropyrazolo[1,5-a]pyrazin-3-yl)pyridin-2-yl)acetamide]", "EC50": 1000}, {"smiles": "CC(=O)N1CCn2nc(-c3ccc(F)cc3)c(-c3ccnc(NC(=O)Cc4ccccc4)c3)c2C1", "note": "[Compound I-72, N-(4-(5-acetyl-2-(4-fluorophenyl)-4,5,6,7-tetrahydropyrazolo[1,5-a]pyrazin-3-yl)pyridin-2-yl)-2-phenylacetamide]", "EC50": 10}, {"smiles": "CC(=O)N1CCn2nc(-c3ccc(F)cc3)c(-c3ccnc(NC(=O)c4ccccc4)c3)c2C1", "note": "[Compound I-73, N-(4-(5-acetyl-2-(4-fluorophenyl)-4,5,6,7-tetrahydropyrazolo[1,5-a]pyrazin-3-yl)pyridin-2-yl)benzamide]", "EC50": 110}, {"smiles": "CC(=O)N1CCn2nc(-c3ccc(F)cc3)c(-c3ccnc(Nc4ccccc4)c3)c2C1", "note": "[Compound I-74, 1-(2-(4-fluorophenyl)-3-(2-(phenylamino)pyridin-4-yl)-6,7-dihydropyrazolo[1,5-a]pyrazin-5(4H)-yl)ethan-1-one]", "EC50": 1600}, {"smiles": "CC(=O)N1CCn2nc(-c3ccc(F)cc3)c(-c3ccnc(NC(=O)CC4CC4)c3)c2C1", "note": "[Compound I-75, N-(4-(5-acetyl-2-(4-fluorophenyl)-4,5,6,7-tetrahydropyrazolo[1,5-a]pyrazin-3-yl)pyridin-2-yl)-2-cyclopropylacetamide]", "EC50": 200}, {"smiles": "CC(=O)N1CCn2nc(-c3ccc(F)cc3)c(-c3ccnc(NC(=O)c4ccn(C)n4)c3)c2C1", "note": "[Compound I-76, N-(4-(5-acetyl-2-(4-fluorophenyl)-4,5,6,7-tetrahydropyrazolo[1,5-a]pyrazin-3-yl)pyridin-2-yl)-1-methyl-1H-pyrazole-3-carboxamide]", "EC50": 1000}, {"smiles": "O=C(Cc1ccc(F)cc1)Nc1cc(-c2c(-c3ccc(F)cc3)nn3c2CN(Cc2ccccc2)CC3)ccn1", "note": "[Compound I-94, N-(4-(5-benzyl-2-(4-fluorophenyl)-4,5,6,7-tetrahydropyrazolo[1,5-a]pyrazin-3-yl)pyridin-2-yl)-2-(4-fluorophenyl)acetamide]", "EC50": 200}, {"smiles": "CC(=O)Nc1cc(-c2c(-c3ccc(F)cc3)nn3c2CN(Cc2ccccc2)CC3)ccn1", "note": "[Compound I-95, N-(4-(5-benzyl-2-(4-fluorophenyl)-4,5,6,7-tetrahydropyrazolo[1,5-a]pyrazin-3-yl)pyridin-2-yl)acetamide]", "EC50": 1700}, {"smiles": "CCC(=O)Nc1cc(-c2c(-c3ccc(F)cc3)nn3c2CN(C(=O)CC)CC3)ccn1", "note": "[Compound I-97, N-(4-(2-(4-fluorophenyl)-5-propionyl-4,5,6,7-tetrahydropyrazolo[1,5-a]pyrazin-3-yl)pyridin-2-yl)propionamide]", "EC50": 900}, {"smiles": "CC(C)C(=O)Nc1cc(-c2c(-c3ccc(F)cc3)nn3c2CN(C(=O)C(C)C)CC3)ccn1", "note": "[Compound I-98, N-(4-(2-(4-fluorophenyl)-5-isobutyryl-4,5,6,7-tetrahydropyrazolo[1,5-a]pyrazin-3-yl)pyridin-2-yl)isobutyramide]", "EC50": 2100}, {"smiles": "CC(=O)Nc1cc(-c2c(-c3ccc(F)cc3)nn3c2CNCC3)ccn1", "note": "[Compound I-99, N-(4-(2-(4-fluorophenyl)-4,5,6,7-tetrahydropyrazolo[1,5-a]pyrazin-3-yl)pyridin-2-yl)acetamide]", "EC50": 700}, {"smiles": "CC(=O)N1CCn2nc(-c3ccc(F)cc3)c(-c3ccnc(Nc4ccncc4)c3)c2C1", "note": "[Compound I-101, 1-(2-(4-fluorophenyl)-3-(2-(pyridin-4-ylamino)pyridin-4-yl)-6,7-dihydropyrazolo[1,5-a]pyrazin-5(4H)-yl)ethan-1-one]", "EC50": 2200}]}, {"tested_on": "not listed separately", "assay": "Intrinsic clearance in liver microsomes (human)", "assay_type": "in vitro ADME", "details": "Human liver microsomes 0.5 mg/mL, 2 μM compound, 37° C.; read-out: in vitro CLint (μL/min/mg protein)", "protocol": "(§1) • 1. The master solution was prepared according to Table 5.\n(§2) • 2. Three separated experiments were performed as follows. a) With NADPH: 10 μL of 20 mg/mL liver microsomes and 40 μL of 10 mM NADPH were added to the incubations. The final concentrations of microsomes and NADPH were 0.5 mg/mL and 1 mM, respectively. b) Without NADPH: 10 μL of 20 mg/mL liver microsomes and 40 μL of ultra-pure H2O were added to the incubations. The final concentration of microsomes was 0.5 mg/mL. c) Heat-inactivated microsomes without NADPH: 10 μL of 20 mg/mL heat-inactivated liver microsomes and 40 μL of ultra-pure H2O were added to the incubations. The final concentration of microsomes was 0.5 mg/mL. • 3. The reaction was started with the addition of 4 μL of 200 μM test compound solution or control compound solution at the final concentration of 2 μM and carried out at 37° C. • 4. Aliquots of 50 μL were taken from the reaction solution at 0, 15, 30, 45 and 60 min. […] Samples were centrifuged at 3, 220 g for 40 minutes. […] Data Analysis\n(§3) Peak areas were determined from extracted ion chromatograms. The slope value, k, was determined by linear regression of the natural logarithm of the remaining percentage of the parent drug vs. incubation time curve.\n(§4) The in vitro half-life (in vitro t1/2) was determined from the slope value:\n(§5) Conversion of the in vitro t1/2 (min) into the in vitro intrinsic clearance (in vitro CLint, in μL/min/mg protein) was done using the following equation (mean of duplicate determinations): […]", "units": {"microsomal CLint at 2 μM": "µL/min/mg"}, "values": [{"smiles": "Cc1cc(-c2c(-c3ccc(F)cc3)nn3c2CN(Cc2ncccn2)CC3)ccn1", "note": "[Compound I-9, 2-(4-fluorophenyl)-3-(2-methylpyridin-4-y)-5-(pyrimidin-2-ylmethyl)-4,5,6,7-tetrahydropyrazolo[1,5-a]pyrazine]", "microsomal CLint at 2 μM": 12.4}]}, {"tested_on": "not listed separately", "assay": "Intrinsic clearance in liver microsomes (human)", "assay_type": "in vitro ADME", "details": "Human liver microsomes 0.5 mg/mL, 2 μM compound, 37° C.; read-out: in vitro t1/2", "protocol": "as §1, §2, §3, §4, §5", "units": {"half-life at 2 μM": "h"}, "values": [{"smiles": "Cc1cc(-c2c(-c3ccc(F)cc3)nn3c2CN(Cc2ncccn2)CC3)ccn1", "note": "[Compound I-9, 2-(4-fluorophenyl)-3-(2-methylpyridin-4-y)-5-(pyrimidin-2-ylmethyl)-4,5,6,7-tetrahydropyrazolo[1,5-a]pyrazine]", "half-life at 2 μM": 1.86}]}, {"tested_on": "not listed separately", "assay": "Intrinsic clearance in liver microsomes (mouse)", "assay_type": "in vitro ADME", "details": "Mouse liver microsomes 0.5 mg/mL, 2 μM compound, 37° C.; read-out: in vitro CLint (μL/min/mg protein)", "protocol": "as §1, §2, §3, §4, §5", "units": {"microsomal CLint at 2 μM": "µL/min/mg"}, "values": [{"smiles": "Cc1cc(-c2c(-c3ccc(F)cc3)nn3c2CN(Cc2ncccn2)CC3)ccn1", "note": "[Compound I-9, 2-(4-fluorophenyl)-3-(2-methylpyridin-4-y)-5-(pyrimidin-2-ylmethyl)-4,5,6,7-tetrahydropyrazolo[1,5-a]pyrazine]", "microsomal CLint at 2 μM": 43.4}]}, {"tested_on": "not listed separately", "assay": "Intrinsic clearance in liver microsomes (mouse)", "assay_type": "in vitro ADME", "details": "Mouse liver microsomes 0.5 mg/mL, 2 μM compound, 37° C.; read-out: in vitro t1/2", "protocol": "as §1, §2, §3, §4, §5", "units": {"half-life at 2 μM": "h"}, "values": [{"smiles": "Cc1cc(-c2c(-c3ccc(F)cc3)nn3c2CN(Cc2ncccn2)CC3)ccn1", "note": "[Compound I-9, 2-(4-fluorophenyl)-3-(2-methylpyridin-4-y)-5-(pyrimidin-2-ylmethyl)-4,5,6,7-tetrahydropyrazolo[1,5-a]pyrazine]", "half-life at 2 μM": 0.532}]}]}
